Test results taken from US11186566B2, “Modulator of cystic fibrosis transmembrane conductance regulator, pharmaceutical compositions, methods of treatment, and process for making the modulator” (Vertex Pharmaceuticals Incorporated, priority 2016, dated 2021).
Where two headings read alike, the source gives them in different places.

Experiments:
Rat IV and PO PK studies = assay type: in vivo, male Sprague-Dawley rats; settings: male, Sprague-Dawley, plasma; for bioavailability / AUC: 3 mg/kg, oral; for bioavailability: read-out: Rat po % F; for clearance: intravenous, 3.0 mg/kg, read-out: Rat iv CL
Protocol: 5C. Experimental Protocol for Rat IV and PO PK Studies
[…] […] Analyses of plasma and dose preparations were performed using LC/MS/MS.
Plasma concentration-time profiles of the tested compound in Sprague-Dawley rats at scheduled (nominal) sampling times were analyzed by noncompartmental pharmacokinetic methods using PK function within Watson LIMS software, Version 7.4.2 (Thermo Scientific Inc, Waltham, Mass.). AUC values were calculated using the linear trapezoidal rule.

F508del-CFTR = F508del-CFTR (Homo sapiens (Human), UniProt P13569, DEL508-508); assay: Membrane potential optical (fluorescent voltage sensing dye, FLIPR III) HTS assay for F508del-CFTR modulators; assay type: cell-based
Sequence of F508del-CFTR (P13569 other isoform, or with tags, fused parts or gaps del F508-F508): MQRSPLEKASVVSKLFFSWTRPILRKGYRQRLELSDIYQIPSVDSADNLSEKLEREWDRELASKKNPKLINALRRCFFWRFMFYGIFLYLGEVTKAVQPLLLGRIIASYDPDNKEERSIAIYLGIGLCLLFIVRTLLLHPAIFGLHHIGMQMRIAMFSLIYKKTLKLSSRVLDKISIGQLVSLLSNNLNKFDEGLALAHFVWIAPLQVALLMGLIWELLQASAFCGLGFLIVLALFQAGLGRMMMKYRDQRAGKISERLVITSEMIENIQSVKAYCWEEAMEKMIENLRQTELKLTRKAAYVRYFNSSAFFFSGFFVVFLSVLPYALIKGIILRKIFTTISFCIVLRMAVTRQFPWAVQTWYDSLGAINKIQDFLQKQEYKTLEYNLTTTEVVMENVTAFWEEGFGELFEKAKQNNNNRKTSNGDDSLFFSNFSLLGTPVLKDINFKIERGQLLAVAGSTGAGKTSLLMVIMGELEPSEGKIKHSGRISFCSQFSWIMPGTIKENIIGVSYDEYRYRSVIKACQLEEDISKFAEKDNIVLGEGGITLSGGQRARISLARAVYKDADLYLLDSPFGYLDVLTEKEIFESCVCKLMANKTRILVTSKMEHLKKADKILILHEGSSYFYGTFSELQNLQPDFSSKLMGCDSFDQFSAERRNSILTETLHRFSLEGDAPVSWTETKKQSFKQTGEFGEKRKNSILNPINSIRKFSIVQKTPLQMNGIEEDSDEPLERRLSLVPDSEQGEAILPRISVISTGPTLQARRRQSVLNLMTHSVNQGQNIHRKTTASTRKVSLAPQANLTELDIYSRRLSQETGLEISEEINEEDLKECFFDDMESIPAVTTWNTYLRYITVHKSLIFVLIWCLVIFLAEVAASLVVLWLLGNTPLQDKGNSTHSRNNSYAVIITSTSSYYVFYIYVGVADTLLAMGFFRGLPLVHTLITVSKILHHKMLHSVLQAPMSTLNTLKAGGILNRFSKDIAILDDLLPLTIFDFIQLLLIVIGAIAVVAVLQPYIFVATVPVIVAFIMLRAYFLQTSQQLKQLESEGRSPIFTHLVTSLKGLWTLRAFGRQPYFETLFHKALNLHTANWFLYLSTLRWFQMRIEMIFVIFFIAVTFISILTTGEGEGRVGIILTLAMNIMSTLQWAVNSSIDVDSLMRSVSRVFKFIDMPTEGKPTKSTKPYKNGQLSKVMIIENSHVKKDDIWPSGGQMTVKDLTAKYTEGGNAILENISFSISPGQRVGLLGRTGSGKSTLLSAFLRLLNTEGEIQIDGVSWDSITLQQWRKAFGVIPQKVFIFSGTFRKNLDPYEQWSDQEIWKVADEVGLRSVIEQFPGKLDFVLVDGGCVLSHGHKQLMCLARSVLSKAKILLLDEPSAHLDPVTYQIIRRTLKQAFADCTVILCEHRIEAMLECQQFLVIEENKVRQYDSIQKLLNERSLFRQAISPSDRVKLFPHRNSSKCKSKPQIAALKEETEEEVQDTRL
Description: Membrane Potential Optical Methods for Assaying Properties of F508del-CFTR Modulators
The assay utilizes fluorescent voltage sensing dyes to measure changes in membrane potential using a fluorescent plate reader (e.g., FLIPR III, Molecular Devices, Inc.) as a readout for increase in functional F508del in NIH 3T3 cells.
5A-A1. Identification of F508Del-CFTR Modulators
To identify modulators of F508del, a fluorescence based HTS assay format was developed. This HTS assay utilizes fluorescent voltage sensing dyes to measure changes in membrane potential on the FLIPR III as a measurement for increase in gating (conductance) of F508del NIH 3T3 cells.
(in mM) NaCl 160, KCl 4.5, CaCl2 2, MgCl2 1, HEPES 10, pH 7.4 with NaOH, Glucose 10.
Chloride salts in Bath Solution #1 (above) are substituted with gluconate salts.
NIH3T3 mouse fibroblasts stably expressing F508del are used for optical measurements of membrane potential. The cells are maintained at 37° C. in 5% CO2 and 90% humidity in Dulbecco's modified Eagle's medium supplemented with 2 mM glutamine, 10% fetal bovine serum, 1×NEAA, β-ME, 1×pen/strep, and 25 mM HEPES in 175 cm^2 culture flasks. For all optical assays, the cells were seeded at 12,000 cells/well in 384-well matrigel-coated plates and cultured for 18-24 hrs at 37° C. for the potentiator assay. For the correction assays, the cells are cultured at 37° C. with and without compounds for 18-24 hours.

[1] = F508del NIH 3T3 cells, assay 5A-A1, read-out: CFTRdF508 EC50
[2] = Table 9, read-out: CFTR dF508 EC50

SMILES | EC50 (F508del-CFTR; [1]) [nM] | EC50 (F508del-CFTR; Table 7, Compound 1 and metabolites, read-out: CFTRdF508 EC50) [nM] | bioavailability (Rat IV and PO PK studies) [%] | clearance (Rat IV and PO PK studies) [mL/min/kg] | AUC (Rat IV and PO PK studies) [ng·h/mL] | EC50 (F508del-CFTR; [2]) [nM]
C[C@@H]1CN(c2nc(-n3ccc(OCC(C4CC4)C4CC4)n3)ccc2C(=O)NS(=O)(=O)c2ccccc2)C(C)(C)C1 [Comp. 41, N-(Benzenesulfonyl)-6-[3-(2,2-dicyclopropylethoxy)pyrazol-1-yl]-2-[(4S)-2,2,4-trimethylpyrrolidin-1-yl]pyridine-3-carboxamide] | – | – | 41 | 1.9 | 6400 | –
C[C@@H]1CN(c2nc(-n3ccc(OCCC(C4CC4)C4CC4)n3)ccc2C(=O)NS(=O)(=O)c2ccccc2)C(C)(C)C1 [Comp. 42, N-(Benzenesulfonyl)-6-[3-(3,3-dicyclopropylpropoxy)pyrazol-1-yl]-2-[(4S)-2,2,4-trimethylpyrrolidin-1-yl]pyridine-3-carboxamide] | < 100 | – | 51 | 5.4 | 4400 | 50
C[C@@H]1CN(c2nc(-n3ccc(OCCC4(C(F)(F)F)CC4)n3)ccc2C(=O)NS(=O)(=O)c2cccc(F)c2)C(C)(C)C1 [Compound 5, N-(3-Fluorophenyl)sulfonyl-6-[3-[2-[1-(trifluoromethyl)cyclopropyl]ethoxy]pyrazol-1-yl]-2-[(4S)-2,2,4-trimethylpyrrolidin-1-yl]pyridine-3-carboxamide] | < 100 | – | 50 | 9.6 | 2700 | 50
C[C@@H]1CN(c2nc(-n3ccc(OCC4(C(F)(F)F)CCC4)n3)ccc2C(=O)NS(=O)(=O)c2ccccc2)C(C)(C)C1 [Compound 10, N-(Benzenesulfonyl)-6-[3-[[1-(trifluoromethyl)cyclobutyl]methoxy]pyrazol-1-yl]-2-[(4S)-2,2,4-trimethylpyrrolidin-1-yl]pyridine-3-carboxamide] | < 100 | – | 41 | 11.2 | 2200 | 40

Second part, led by results:

EC50 (F508del-CFTR; [1]) [nM] | EC50 (F508del-CFTR; Table 7, Compound 1 and metabolites, read-out: CFTRdF508 EC50) [nM] | SMILES | bioavailability (Rat IV and PO PK studies) [%] | clearance (Rat IV and PO PK studies) [mL/min/kg] | AUC (Rat IV and PO PK studies) [ng·h/mL] | EC50 (F508del-CFTR; [2]) [nM]
< 100 | – | C[C@@H]1CN(c2nc(-n3ccc(OCC4(C(F)(F)F)CCC4)n3)ccc2C(=O)NS(=O)(=O)c2cccc(F)c2)C(C)(C)C1 [Compound 59, N-(3-Fluorophenyl)sulfonyl-6-[3-[[1-(trifluoromethyl)cyclobutyl]methoxy]pyrazol-1-yl]-2-[(4S)-2,2,4-trimethylpyrrolidin-1-yl]pyridine-3-carboxamide] | – | – | – | –
100 to 1000 | – | C[C@@H]1CN(c2nc(-n3ccc(OCC4CC45CC5)n3)ccc2C(=O)NS(=O)(=O)c2ccccc2)C(C)(C)C1 (stereo partly drawn) [Compound 60, N-(Benzenesulfonyl)-6-[3-(spiro[2.2]pentan-2-ylmethoxy)pyrazol-1-yl]-2-[(4S)-2,2,4-trimethylpyrrolidin-1-yl]pyridine-3-carboxamide] | – | – | – | –
> 1000 | > 30000 | C[C@H]1CC(C)(C)N2c3nc(-n4ccc(OCCC5(C(F)(F)F)CC5)n4)ccc3C(=O)OC12 (stereo partly drawn) [Compound 62, (5S)-3,3,5-trimethyl-12-(3-(2-[1-(trifluoromethyl)cyclopropyl]ethoxy)-1H-pyrazol-1-yl)-7-oxa-2,13-diazatricyclo[7.4.0.02,6]trideca-1(13),9,11-trien-8-one] | – | – | – | –
100 to 1000 | – | C[C@@H]1CN(c2nc(-n3ccc(OCC45CC(F)(C4)C5)n3)ccc2C(=O)NS(=O)(=O)c2ccccc2)C(C)(C)C1 [Compound 63, N-(Benzenesulfonyl)-6-[3-[(3-fluoro-1-bicyclo[1.1.1]pentanyl)methoxy]pyrazol-1-yl]-2-[(4S)-2,2,4-trimethylpyrrolidin-1-yl]pyridine-3-carboxamide] | – | – | – | –
> 1000 | – | C[C@@H]1CN(c2nc(-n3ccc(O)n3)ccc2C(=O)NS(=O)(=O)c2ccccc2)C(C)(C)C1 [Compound 65, N-(benzenesulfonyl)-6-(3-hydroxypyrazol-1-yl)-2-[(4S)-2,2,4-trimethylpyrrolidin-1-yl]pyridine-3-carboxamide] | – | – | – | –
